Source: patent US7989005B2, “Corosolic acid formulation and its application for weight-loss management and blood sugar balance” (Soft Gel Technologies, Inc., priority 2000, dated 2011)

Columns and labels:
[1] = Acute toxicity studies in rats, single oral limit-dose; assay type: in vivo; conditions: single oral limit-dose of 5 g/Kg
From the text: The Journal of the Philippine Medical Association, 22, #7, 395402, 1940; Garcia, F. Distribution and Deterioration of Insulin-like Principle in Lagerstroemia Speciosa (Banaba). Acta Medica Philippina, 99-104; Garcia, F., and Melencio-Maglalang, P. Application of Banabins (A Plantisul Preparation) and S. B. Menus to Diabetics. The Journal of the Philippine Medical Association, 33, #1, 7-16, 1957; Garcia, F. Criticisms and Answers on Published Articles concerning Banabins or Plantisul Tablets. The Journal of the Philippine Medical Association, 35, #5, 313-319, 1959; Garcia, L., Pojas, F., Castro, I., Venzon, E., Sisson, F. and Capal, T. Pharmaceutico-chemical and Pharmacological Studies on a Crude Drug from Lagerstroemia Speciosa. The Philippine Journal of Science, 116, #4, 361-375, 1987; Scalori V et al., Int. J. Tiss. Reac., 1983, X 2, 95-97).

[2] = test system: Ehrlich Ascites tumor cells; conditions: in-vitro; cited from earlier work

## C[C@H]1[C@H](C)CC[C@]2(C(=O)O)CC[C@]3(C)C(=CC[C@@H]4[C@@]5(C)C[C@@H](O)[C@H](O)C(C)(C)[C@@H]5CC[C@]43C)[C@H]12 [Corosolic acid, 2-a-hydroxyursolic acid]
[1]
  acute toxicity: safe and non-toxic
[2]
  cellular uptake of glucose: improves the cellular uptake of glucose
